Patent US9155774B2, “Scaffold-kinase interaction blockades and uses thereof in treating cancer” (THE BOARD OF TRUSTEES OF THE LELAND STANFORD JUNIOR …, priority 2011, dated 2015)
“Also recorded” adds a separate entry of the source.

Columns and labels:
[1] = system: H-RAS^G12V/IκBαM organotypic human tissue; assay: Organotypic human tissue model of RAS-driven neoplastic invasion; assay type: cell-based
Method: (§1) Retroviral Transduction. […] Alternatively transformation was achieved through combined infection with an LTR-driven retrovirus expressing oncogenic ER:H-RAS and a separate LTR-driven retrovirus expressing cyclin-dependent kinase 4 (CDK4). Polybrene was added to a final concentration of 5 ug/mL to cell media during infection. Infections were performed at 37° C. with low-speed centrifugation for 1 hour. Expression of these viral constructs was verified in vitro. […] As a control for a RAS-IκBα bicistronic virus (IIR), we also infected a separate pool of keratinocytes with a LacZ control virus. For dual ER:H-RAS and CDK4 infected cells, forty-eight hours after infection cultures were daily treated with either […] 40 hydroxytamoxifen or an equal volume of ethanol (vehicle).
(§2) Human Tissue Model System. […] Pieces with less hair follicles are preferable. […] Subsequently, the epidermis is peeled off. […] Tissue was grown for five to ten days total. For immunofluorescence analysis, tissue was placed in OCT.
(§3) Immunofluorescence and Invasion index. […] Tissue was counterstained with Hoescht to visualize cell nuclei.
Hum Gene Ther 8, 1659-1665 (1997)).

[2] = system: normal human organotypic tissue expressing LacZ
IQGAP1 = assay: qRT-PCR validation of IQGAP1 knockdown; assay type: cell-based, human; settings: two, four and six days post-nucleofection
Excerpt: siRNA-mediated knockdown. For each ERK/MAPK scaffold, siRNA oligos were designed and synthesized by Dharmacon. Subsequently, 1×10^6 early-passage neonatal keratinocytes were electroporated with 2 nMol of each siRNA oligo or 1 nMol each of two siRNA oligos using Amaxa nucleofection reagents and according to the manufacturer's protocol. A nonfunctional siRNA served as a negative control and ERK1/2 siRNA served as positive controls. The following siRNA oligos were used for this study (sense/antisense):
shRNA-mediated knockdown. The vectors for pGIPZ shRNA targeting IQGAP1 were designed and purchased through Open Biosystems catalog number V2LHS-86779 for shIQGAP1.E, V2LHS-86781 for shIQGAP1.F, and V2LHS-259635 for shIQGAP1.G. Cells were transduced as above with 1000× puromycin (1 mg/mL) selection applied daily. Transduction of cells was visualized under a fluorescent microscope
qRT-PCR Expression Analysis. At indicated time points, RNA was harvested from cells via treatment with TRIZOL by the standard Invitrogen protocol. Relative mRNA expression was determined by qRT-PCR analysis using a Stratagene Mx3000P thermocycler and Brilliant II SYBR green QRT-PCR 1-step master mix reagents. Primer concentration was 200 nM with 100 ng RNA. Samples were run in triplicate and normalized to levels of GAPDH mRNA for each reaction. The following primers were used for this study: […]

[3] = system: normal human organotypic tissue expressing LacZ; assay: Normal organotypic human tissue homeostasis; settings: drug daily, same concentrations as in neoplastic tissue (UO126 5 μM)
Excerpt: Human Tissue Model System. Dermis can be ordered from National Disease Research Interchange (NDRI) and New York Firefighter Skin Bank. Tissue is inspected for overall thickness as well as continuity across the spectrum. Pieces with less hair follicles are preferable. This tissue is cultures in a mixture of antibiotics and antimyotics for a period of 10-14 days. Subsequently, the epidermis is peeled off. The devitalized dermis is then ready to be repopulated with 2-4×10^5 neonatal human fibroblasts by low speed centrifugation for 1 hour. Tissue is raised to the air-liquid interface and seeded with 0.5-1×10^6 genetically modified human keratinocytes to stimulate differentiation and stratification (Ridky, T. W., et al. Invasive three-dimensional organotypic neoplasia from multiple normal human epithelia. Nat Med 16, 1450-1456 (2010); PrunieRAS, M., et al. Methods for cultivation of keratinocytes with an air-liquid interface. J Invest Dermatol 81, 28-33 (1983)). Tissue was treated with drug/peptide as indicated by application directly into culture media daily. Tissue was grown for five to ten days total. For immunofluorescence analysis, tissue was placed in OCT. For histological analysis, tissue was fixed in 10% formalin (Sigma-Aldrich) and embedded in paraffin.
Immunofluorescence and Invasion index. OCT embedded tissue samples were cut into 7 um sections then fixed and permeabilized by incubation in ice-cold methanol or acetone for 10 minutes at −20° C. followed by blocking in 10% horse serum in PBS for 1 hour. Tissue sections were then incubated with primary antibodies, followed by Alexafluor-488 conjugated or Alexafluor-555 conjugated, goat anti-mouse or goat anti-rabbit secondary antibodies (Molecular Probes). The following antibodies were used: rabbit anti-keratin-5 (1:4000, Covance, PRB-160P), mouse anti-collagen VII (1:200, Millipore, MAB2500), anti-mouse Keratin 10 (1:200, Neomarkers, MS611P), anti-mouse Transglutaminase (1:100, Biomedical Technology, BT-621), anti-rabbit Loricrin (1:200, Covance, PRB-145P), and anti-rabbit Ki67 (1:100, Neomarkers, SP6). Tissue was counterstained with Hoescht to visualize cell nuclei. Microscopy was performed on an Olympus FV1000 scanning laser confocal microscope. For each sample, 30 sequential Z-sections were taken in 3 channels (DAPI—405/450 nm excitation/emission, FITC-488/512 ex/em and TRITC-540/570 ex/em) allowing for subsequent three-dimensional reconstruction analysis. […] Relative invasion index was quantified as number of keratin-positive epithelial cells below the collagen-positive basement membrane zone (BMZ) measured 10 times across 3 independent 20× fields of view. Ki67 quantification was quantified as number of Ki67-positive epithelial cells measured 10 times across 3 independent 20× fields of view. […]

[4] = system: SK-MeI-28 melanoma xenograft tumors; assay: Systemic delivery of WW peptide in vivo by osmotic pump; settings: subcutaneous osmotic pump, 19 mg/kg/day for 14 days
Method: (A) Established xenograft tumors derived from BRAFV600E mutant SK-MeI-28 melanoma cancer cells were subcutaneously implanted with osmotic pumps (Alzet model 2002) (indicated by black arrows) which released 19 mg/kg/day of R8-myc-tagged Scrambled or WW peptide for 14 days (indicated by hash bars) with tumor growth quantified by mean average radiance (n=3 mice per group). […] (D) Representative data of tumor growth as quantified by tumor volume±SEM from d28 and d43.
(§4) Systemic delivery of WW peptide in vivo. 0.5×10^6 luciferase-expressing SK-MeI-28 were injected into the subcutaneous space of hairless immunodeficient 6-8 week old SCID mice (SHO stock, Charles Rovers). Mouse xenografts were allowed to grow untreated for 1 week. Subsequently, tumors were measured and randomized two groups of similar tumor size. Each group was subcutaneously implanted with osmotic pumps (Alzet, model 2002) releasing 0.5 uL of R8-myc-tagged scrambled or WW peptide per hour for 14 days.
as §4, with “To test the efficacy of systemic” for “Systemic”, “vivo,” for “vivo.”, “of” for “of R8-myc-tagged”

ERK = assay: Protein expression analysis of phosphorylated and total ERK (immunoblot / immunohistochemistry); assay type: cell-based, human; settings: Ras-driven organotypic neoplasia, peptide 10 uM daily
Method: Protein Expression Analysis. Cells were lysed in 20 mM Tris (pH 7.5), 150 mM NaCl, 1 mM EDTA, and 1% NP40 supplemented with complete mini EDTA-free protease inhibitors (Roche) and phosphatase inhibitor cocktails I and II (Sigma-Aldrich). 5-20 ug of lysate were loaded per lane, subjected to 10-12% SDS-PAGE or 16% Tricine electrophoresus (Invitrogen NuPage), and subsequently transfer to PVDF membranes via semidry transfer. Primary antibody incubations were performed overnight at 4° C. Secondary antibody incubations were for 1 hour at room temperature. The following antibodies were used: rabbit anti-ERK1/2 (1:1000, Cell Signaling, 9201), rabbit anti-phosphorylated ERK1/2 (1:1000, Thr202/Tyr204, Cell Signaling, 9201), mouse anti-IQGAP1 (1:400, Upstate, 05-504), rabbit anti-RAS (1:500, Santa Cruz, sc-520), rabbit anti-IκBa (1:500, Cell Signaling, 9242), Rabbit anti-β-Galactosidase (1:1000, Cappel, 55976), rabbit anti myc (1:500, Abcam, ab9106), mouse anti-actin (1:10,000, Sigma, 5316), donkey anti-rabbit IgG conjugated to horseradish peroxidase (HRP)(1:20,000, Amersham Biosciences), and donkey anti-mouse IgG conjugated to horseradish peroxidase (HRP)(1:20,000, Amersham Biosciences).

[5] = system: PLX-4032 resistant BRAFV600E melanoma lines (SK-MeI-28, A375, SK-MeI-5); assay: Proliferation of PLX-4032 resistant melanoma lines; assay type: cell-based, human; settings: 5 μM R8-myc-tagged WW peptide and DMSO
[6] = system: PLX-4032 sensitive BRAFV600E melanoma cell lines (SK-MeI-28, A375, SK-MeI-5); assay: Proliferation of PLX-4032 sensitive melanoma lines with peptide; assay type: cell-based, human; settings: increasing doses of R8-myc-tagged WW peptide
Method: (A) Proliferation of PLX-4032 sensitive BRAFV600E melanoma cell lines (P1, SK-MeI-28; P2, A375; and P3, SK-MeI-5) at increasing doses of R8-myc-tagged WW peptide. (B) Proliferation assays of PLX-4032 resistant lines (R1, SK-MeI-28; R2, A375; and R3, SK-MeI-5) treated with 5 μM R8-myc-tagged SCR peptide and DMSO (control), 5 μM SCR peptide and 5 μM PLX-4032 (PLX-4032), or 5 μM R8-myc-tagged WW peptide and DMSO (5 μM WW).
Cell Viability Assay. Genetically modified adherent cancer cell lines were seeded in equivalent, low density cultures in duplicate to 24-well plates. 24 hours post-seeding, media was removed and replaced with 500 uL of a 5:1 mixture of cell media and cell titre blue reagent (Promega). Cultures were incubated with this mixture for 2 hours at 37° C. in the dark. Fluorescence ([…]) for 100 uL in triplicates of each sample was recorded. Incubation with cell titre blue reagent and fluorescent readings were repeated every two days for a total of twelve days. Values plotted correspond to readings taken while control samples are still growing exponentially.

[7] = system: IQGAP1-Erk1/2 interaction; assay: Immunoprecipitation of endogenous IQGAP1 protein and associated Erk; assay type: cell-based, human; settings: 10 μM peptide daily for six days, SK-MeI-28 cells
Method: (A) Immunoprecipitation of endogenous IQGAP1 protein and associated Erk from primary human cells (normal) or BRAFV600E mutant SK-MeI-28 melanoma cells (cancer) following daily treatment with 10 μM R8-myc-tagged SCR or WW peptide for six days. (B) Relative Erk levels as a function of immunoprecipitated IQGAP1 as in (d). n=3, ±SD.
Immunoprecipitation of endogenous IQGAP1 protein and associated Erk. Cells were cross-linked with 1 mL of 20 mM DSP (Thermo Scientific) for 1 hour at 4° C. and the reaction was stopped with washes in 50 mM Tris. Cells were lysed in 20 mM Tris, 150 mM NaCl, 0.2% NP40, 10% Glycerol with 0.5 mM dTT and protease/phosphatase inhibitors added directly before use (buffer 1) for 1 hour at 4° C., but not pelleted. 1 mg lysate in 500 uL was combined with 5 ug of mouse anti-IQGAP1 antibody (Millipore 05-504) in buffer 1 and rocked overnight at 4° C. 30 uL of protein G sepharose 4 fast flow (GE Healthcare) were washed in buffer 1 and combined with lysate for 1 hour at 4° C. Supernatent was removed to check for immunodepletion. Beads were washed 3 times in 20 mM Tris, 150 mM NaCl, 1% Triton X-100 with protease/phosphatase inhibitors added directly before use (buffer 2). Immunoprecipitate was eluted from beads in 200 uL of 4×LDS sample buffer in buffer 1 plus 5% BME. […]

[8] = system: Ras-driven organotypic human epidermal neoplasia; assay: Ras-driven organotypic human epidermal neoplasia (ER:H-RAS/CDK4, 4OHT) invasion; assay type: cell-based; settings: peptide 10 uM daily in media vs scrambled control peptide
Method: as §1, §2, §3
Exogenous delivery of the WW domain to human tissue. […] Briefly stromal primary human fibroblasts were seeded onto devitalized human dermis and subsequently elevated to a sterilized annular dermal support (ADS) tissue culture insert device (Ridky, supra). […]

[9] = siRNA-nucleofected keratinocytes
[10] = drug daily in culture media: UO126 5 μM, SB0203580 2.6 μM, PD98059 18.7 μM, LY294002 5 μM

## siIQGAP1.C: siRNA to 3′ UTR of IQGAP1, SEQ ID NO: 15/16 (chain 1 CAGCCAUCAUGACAUUUACCAUGAA; chain 2 UUCAUGGUAAAUGUCAUGAUGGCUG; chemistry not given here)
[1]; [9]
  neoplastic invasion: no invasion
[2]
  normal tissue phenotype: phenotypically normal tissue
IQGAP1
  durability of IQGAP1 knockdown: more durable knockdown

## siIQGAP1.A: siRNA to coding sequence of IQGAP1, SEQ ID NO: 11/12 (chain 1 GAACGUGGCUUAUGAGUACUU; chain 2 GUACUCAUAAGCCACGUUCUU; chemistry not given here)
[1]; [9]
  neoplastic invasion: no invasion
[2]
  normal tissue phenotype: phenotypically normal tissue

## N#CC(=C(/N)Sc1ccccc1N)/C(C#N)=C(/N)Sc1ccccc1N [UO126]
[3]
  normal tissue homeostasis: without affecting normal tissue homeostasis

## WW peptide: 32 amino acid IQGAP1 WW domain peptide, myc-tagged, made cell penetrating by adding eight arginine residues (RRRRRRRREQKLISEEDLDNNSKWVKHWVKGGYYYYHNLETQEGGWDEPP)
[4]
  toxic effects to animals: without adverse toxic effects to animals
  weight gain of mice: no negative effects on mouse growth
[4]; 19 mg/kg/day
  tumorigenesis / tumor growth: diminishes tumorigenesis; also recorded: can inhibit tumorigenesis
ERK
  pErk1/2 levels: diminished pErk1/2 levels
[5]
  growth of PLX-4032-resistant melanoma cells: inhibited growth of PLX-4032-resistant melanoma cells similarly to PLX-4032-sensitive parental cells; also recorded: bypasses resistance to B-Raf inhibitors
[6]
  proliferation of BRAF mutant melanoma cells: inhibited proliferation of BRAF mutant melanoma cells in a dose-dependent manner
[7]
  total Erk1/2 bound to endogenous IQGAP1: significantly decreased
[8]
  BMZ degradation: abrogated BMZ degradation
  neoplastic invasion: abolished neoplastic invasion; also recorded: inhibits neoplastic invasion

## COc1cccc(-c2cc(=O)c3ccccc3o2)c1N [PD098059]
[1]; [10]
  neoplastic invasion: did not have an abrogating effect on neoplastic invasion; also recorded: did not block invasion

## siIQGAP1.B: siRNA to 3′ UTR of IQGAP1, SEQ ID NO: 13/14 (chain 1 CCUCUCGCUCUGAUGGGACAUUUGU; chain 2 ACAAAUGUCCCAUCAGAGCGAGAGG; chemistry not given here)
[1]; [9]
  neoplastic invasion: no invasion
[2]
  normal tissue phenotype: phenotypically normal tissue
IQGAP1
  durability of IQGAP1 knockdown: more durable knockdown

## C[S+]([O-])c1ccc(-c2nc(-c3ccncc3)c(-c3ccc(F)cc3)[nH]2)cc1 (centres unmarked) [SB203580]
[1]; [10]
  neoplastic invasion: did not completely block invasion; also recorded: did not see effects
